Assay results reported in the NIST ThermoML archive (doi:10.1016/j.jct.2013.09.030).
Numbers after ± are expanded uncertainties.

Assay: cn = amount concentration of the nth substance listed, in mol/dm3
Settings: 303.15 K; 101 kPa; Liquid; 4510 conductivity meter (Jenway, UK); c1 = 0.0005258

In the case of `CC1=C(C(=O)O)N2C(=O)[C@@H](NC(=O)[C@H](N)C3=CCC=CC3)[C@H]2SC1` [Cefradin] + O, the electrical conductivity is reported as 0.000611 ± 0.0002 S/m.
